The target in the assay is T1, mAChR M1 (Homo sapiens, UniProt P11229).
T1 construct: expressed in transfected cells; host or cells: CHO-K1
T1 sequence (P11229 1-460): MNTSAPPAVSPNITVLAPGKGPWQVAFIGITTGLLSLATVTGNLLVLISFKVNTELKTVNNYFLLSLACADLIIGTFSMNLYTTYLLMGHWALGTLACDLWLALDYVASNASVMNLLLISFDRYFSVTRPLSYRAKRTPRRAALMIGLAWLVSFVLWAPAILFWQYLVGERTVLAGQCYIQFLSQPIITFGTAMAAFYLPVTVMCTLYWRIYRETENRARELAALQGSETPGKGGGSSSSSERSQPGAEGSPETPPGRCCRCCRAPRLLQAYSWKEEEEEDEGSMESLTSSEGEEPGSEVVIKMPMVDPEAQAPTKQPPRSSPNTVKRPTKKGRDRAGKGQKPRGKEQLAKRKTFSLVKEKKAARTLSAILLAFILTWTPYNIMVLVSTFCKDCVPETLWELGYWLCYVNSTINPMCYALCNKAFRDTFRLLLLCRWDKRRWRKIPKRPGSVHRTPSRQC
The assay is described as follows: mAChR M1 cell-based functional assay (calcium mobilization, potentiation of EC20 acetylcholine response in CHO-K1 cells). The conditions noted are these: for Emax: CHO-K1, maximal response of curve fit or response at 30 μM test compound, as % of response to an about EC80 ACh concentration, read-out: Emax (% ACh maximum at 30 μM); for EC50: positive allosteric modulation of EC20 acetylcholine response, >10,000 estimated where no plateau in the curve. The text has this: Chinese hamster ovary (CHO-K1) cells stably expressing rat (r)M1 were purchased from the American Type Culture Collection and cultured according to their indicated protocol. CHO cells stably expressing human (h)M2, hM3, and hM5 were described previously (Levey, A. I., et al., J. Neurosci. 1991, 11, 3218-3226.); hM1 and hM4 cDNAs were purchased from Missouri S&T cDNA Resource; rM4 cDNA was provided by T. I. Bonner (National Institutes of Health, Bethesda, Md.). rM2 and rM3 were cloned from a rat brain cDNA library and sequence verified. hM1, rM2, rM3, hM4, and rM4 cDNAs were used to stably transfect CHO-K1 cells purchased from the American Type Culture Collection using Lipofectamine-2000. To make stable rM2, hM2, hM4, and rM4 cell lines for use in calcium mobilization assays, these cells also were stably transfected with a chimeric G-protein (Gqi5) (provided by B. R. Conklin, University of California, San Francisco) using Lipofectamine 2000. rM1, hM1, rM3, hM3, rM5, and hM5 cells were grown in Ham's F-12 medium containing 10% heat-inactivated fetal bovine serum (FBS), 20 mM HEPES, and 50 μg/mL G418 sulfate. rM2-Gqi5, hM2Gqi5, and hM4Gqi5 cells were grown in the same medium also containing 500 μg/mL Hygromycin B. Stable rM4Gqi5 cells were grown in DMEM containing 10% heat-inactivated FBS, 20 mM HEPES, 400 μg/mL G418 sulfate, and 500 μg/mL Hygromycin B.
For high throughput measurement of agonist-evoked increases in intracellular calcium, CHO-K1 cells stably expressing muscarinic receptors were plated in growth medium lacking G418 and hygromycin at 15,000 cells/20 μL/well in Greiner 384-well black-walled, tissue culture (TC)-treated, clear-bottom plates (VWR). Cells were incubated overnight at 37° C. and 5% CO2. The next day, cells were washed using an ELX 405 (BioTek) with four washes (80 μL) of assay buffer then […], 20 μL of Fluo-4/acetoxymethyl ester (Invitrogen, Carlsbad, Calif.) prepared as a 2.3 mM stock in DMSO and mixed in a 1:1 ratio with 10% (w/v) Pluronic F-127 and diluted in assay buffer was added to the wells and the cell plates were incubated for […] at 37° C. and 5% CO2. Dye was removed by washing with the ELX 405 (four 80 μL washes of assay buffer) then aspirated to 20 μL. Compound master plates were formatted in an 11 point CRC format (1:3 dilutions) in 100% DMSO with a starting concentration of 10 mM using the BRAVO liquid handler (Agilent). Test compound CRCs were then transferred to daughter plates ([…]) using the Echo acoustic plate reformatter (Labcyte, Sunnyvale, Calif.) and then diluted into assay buffer (40 μL) to a 2× stock using a Thermo Fisher Combi (Thermo Fisher Scientific, Waltham, Mass.).
Calcium flux was measured using the Functional Drug Screening System (FDSS) 6000 (Hamamatsu Corporation, Tokyo, Japan) as an increase in the fluorescent static ratio. Compounds were applied to cells (20 μL, 2×) using the automated system of the FDSS 6000 at 4 s into the 300 s protocol and the data were collected at 1 Hz. At 144 s into the 300 s protocol, 10 μL of an EC20 concentration of the muscarinic receptor agonist acetylcholine was added (5×), followed by the addition of 12 μL an EC80 concentration of acetylcholine at the 230 s time point (5×). Agonist activity was analyzed as a concentration-dependent increase in calcium mobilization upon compound addition. Positive allosteric modulator activity was analyzed as a concentration-dependent increase in the EC20 acetylcholine response. Antagonist activity was analyzed as a concentration-dependent decrease in the EC80 acetylcholine response. Concentration-response curves were generated using a four-parameter logistical equation in XLFit curve fitting software (IDBS, Bridgewater, N.J.) for Excel (Microsoft, Redmond, Wash.) or Prism (GraphPad Software, Inc., San Diego, Calif.).
The calcium mobilization assay was also used to determine “efficacy”. […]

A word on the Emax: it is the maximal effect, on the per cent scale that the assay sets. The term EC50 denotes the midpoint of the concentration-response curve.

As to `Cn1cc(-c2ccc(CN3C(=O)CCc4ccccc43)c(F)c2)cn1` [Compound B22], the Emax stood at 44% and the EC50 is more than 10 µM.
`Cn1cc(-c2ccc(Cn3cc(S(=O)(=O)CCNC(=O)c4ccn[nH]4)c4c(F)cc(F)cc43)c(F)c2)cn1` [Compound B12]: the Emax worked out at 31% and the EC50 is 8.1 µM.
In the case of `Cn1cc(-c2ccc(CN3c4ccccc4CS3(=O)=O)c(F)c2)cn1` [Compound B24, 1-(2-fluoro-4-(1-methyl-1H-pyrazol-4-yl)benzyl)-1,3-dihydrobenzo[c]isothiazole 2,2-dioxide], the Emax came to 39% and the EC50 was more than 10 µM.
Taken in the same sequence, the figures for `Cn1cc(-c2ccc(CN3CC[S+]([O-])c4ccccc43)c(F)c2)cn1` (centres unmarked) [Compound B18] were 31% and more than 10 µM.
Taken in the same sequence, the figures for `Cn1cc(-c2ccc(CN3CC(C(=O)O)c4ccccc43)c(F)c2)cn1` (centres unmarked) [Compound B25] were 52% and more than 10 µM.
For the molecule `Cn1cc(-c2ccc(Cn3cc(S(=O)(=O)CCNC(=O)c4ccccn4)c4c(F)cc(F)cc43)c(F)c2)cn1` [Compound B29], the Emax turned out to be 34% and the EC50 was more than 10 µM.
Taken in the same sequence, the figures for `Cn1cc(-c2ccc(Cn3cc(S(=O)(=O)CCNC(=O)c4ccnnc4)c4c(F)cc(F)cc43)c(F)c2)cn1` [Compound B11] were 45% and 7.6 µM.
`Cn1cc(-c2ccc(Cn3cc(S(=O)(=O)CCNC(=O)c4cnccn4)c4c(F)cc(F)cc43)c(F)c2)cn1` [Compound B4, N-(2-((4,6-difluoro-1-(2-fluoro-4-(1-methyl-1H-pyrazol-4-yl)benzyl)-1H-indol-3-yl)sulfonyl)ethyl)pyrazine-2-carboxamide]: the Emax turned out to be 52% and the EC50 was 3.4 µM.
As for `Cn1cc(-c2ccc(Cn3cc(S(C)(=O)=O)c4ccccc43)c(F)c2)cn1` [Compound B7], the Emax worked out at 64% and the EC50 is 3.9 µM.
The matching figures for `Cn1cc(-c2ccc(CN3C(=O)OCc4ccccc43)c(F)c2)cn1` [Compound B3, 1-(2-fluoro-4-(1-methyl-1H-pyrazol-4-yl)benzyl)-1H-benzo[d][1,3]oxazin-2(4H)-one]: 61% and 3.1 µM.
The matching figures for `Cn1cc(-c2ccc(CN3C(=O)CSc4ccccc43)c(F)c2)cn1` [Compound B16, 4-(2-fluoro-4-(1-methyl-1H-pyrazol-4-yl)benzyl)-2H-benzo[b][1,4]thiazin-3(4H)-one]: 32% and more than 10 µM.
Turning to `Cn1cc(-c2ccc(CN3Cc4ccccc4C3C(=O)O)c(F)c2)cn1` (centres unmarked) [Compound B26], the Emax amounted to 61% and the half-maximal effective concentration (EC50) was more than 10 µM.
Taken in the same sequence, the figures for `Cn1cc(-c2ccc(Cn3cc(S(=O)(=O)CCNC(=O)c4cocn4)c4c(F)cc(F)cc43)c(F)c2)cn1` [Compound B32] were 57% and more than 10 µM.
With `Cn1cc(-c2ccc(CN3C(=O)C[S+]([O-])c4ccccc43)c(F)c2)cn1` (centres unmarked) [Compound B20, 4-(2-fluoro-4-(1-methyl-1H-pyrazol-4-yl)benzyl)-2H-benzo[b][1,4]thiazin-3(4H)-one 1-oxide], the Emax turned out to be 41% and the EC50 is more than 10 µM.
As for `Cn1cc(-c2ccc(CNc3ccccc3[S+](C)[O-])c(F)c2)cn1` (centres unmarked) [Compound B17], the Emax came out at 39% and the EC50 is more than 10 µM.
The matching figures for `Cn1cc(-c2ccc(Cn3c(=O)sc4ccccc43)c(F)c2)cn1` [Compound B14]: 45% and more than 10 µM.
Take `Cn1cc(-c2ccc(Cn3cc(C(=O)Nc4cccnc4)c4ccccc43)c(F)c2)cn1` [Compound B9, 1-(2-fluoro-4-(1-methyl-1H-pyrazol-4-yl)benzyl)-N-(pyridin-3-yl)-1H-indole-3-carboxamide]: the Emax stood at 50% and the EC50 was 5.4 µM.
Turning to `Cn1cc(-c2ccc(CN3C(=O)CS(=O)(=O)c4ccccc43)c(F)c2)cn1` [Compound B21, 4-(2-fluoro-4-(1-methyl-1H-pyrazol-4-yl)benzyl)-2H-benzo[b][1,4]thiazin-3(4H)-one 1,1-dioxide], the Emax was 36% and the EC50 is more than 10 µM.
Taken in the same sequence, the figures for `Cn1cc(-c2ccc(Cn3cc(S(=O)(=O)CCNC(=O)c4cccnn4)c4c(F)cc(F)cc43)c(F)c2)cn1` [Compound B10] were 36% and 5.6 µM.
For `Cn1cc(-c2ccc(Cn3cc(S(=O)(=O)CCNC(=O)c4cccc(F)c4)c4c(F)cc(F)cc43)c(F)c2)cn1` [Compound B30], the Emax is 35% and the EC50 was more than 10 µM.
On to `Cn1cc(-c2ccc(CN3Cc4ccccc4C3)c(F)c2)cn1` [Compound B5], for which the Emax worked out at 38% and the EC50 was 3.5 µM.
The matching figures for `Cn1cc(-c2ccc(Cn3c(=O)ccc4ccccc43)c(F)c2)cn1` [Compound B6]: 45% and 3.6 µM.
The matching figures for `Cn1cc(-c2ccc(CNc3ccccc3S(C)(=O)=O)c(F)c2)cn1` [Compound B15]: 34% and more than 10 µM.
For `Cn1cc(-c2ccc(CN3C(=O)COc4ccccc43)c(F)c2)cn1` [Compound B23], the Emax turned out to be 44% and the EC50 is more than 10 µM.
The matching figures for `Cn1cc(-c2ccc(CN3C(=O)NCc4ccccc43)c(F)c2)cn1` [Compound B19]: 46% and more than 10 µM.
Taken in the same sequence, the figures for `Cc1cc(NC(=O)c2cn(Cc3ccc(-c4cnn(C)c4)cc3F)c3ccccc23)no1` [Compound B8] were 43% and 5 µM.
`Cn1cc(-c2ccc(Cn3cc(C(=O)NCCc4ccccn4)c4ccccc43)c(F)c2)cn1` [Compound B28]: the Emax came to 35% and the EC50 was more than 10 µM.
For `COc1cc2ccccc2n(Cc2ccc(-c3cnn(C)c3)cc2F)c1=O` [Compound B1, 1-(2-fluoro-4-(1-methyl-1H-pyrazol-4-yl)benzyl)-3-methoxyquinolin-2(1H)-one], the Emax stood at 31% and the EC50 is 2.4 µM.
Regarding `Cn1cc(-c2ccc(Cn3cc(S(=O)(=O)CCNC(=O)c4ccncc4)c4c(F)cc(F)cc43)c(F)c2)cn1` [Compound B31], the Emax turned out to be 30% and the EC50 was more than 10 µM.
As to `Cn1cc(-c2ccc(Cn3nc4ccccn4c3=O)c(F)c2)cn1` [Compound B13], the Emax came out at 29% and the EC50 is 9.4 µM.
The matching figures for `Cn1cc(-c2ccc(Cn3cc(C(=O)O)c4ccccc43)c(F)c2)cn1` [Compound B27]: 48% and more than 10 µM.

These data come from US9012445B2, “Substituted 4-(1H-pyrazol-4-yl)benzyl analogues as positive allosteric modulators of mAChR M1 receptors” (Vanderbilt University, priority 2012, dated 2015).
